From US5869448A, “Cyclic CS-1 peptidomimetics, compositions and methods of using same” (Cytel Corporation, priority 1995, dated 1999)
Each block holds one compound with its values, some of them ahead of it. Positions of bridges follow the written chain, without caps; N, C: chain ends. Non-standard residues stand in square brackets, D forms with d. Residues, ends and D or L forms follow the SMILES beside them. No end group written: not given here. *: point of attachment. Pen = CC(C)(S)[C@H](N)C(=O)O; PhAc = O=C(Cc1ccccc1)*

Biological target: T1, VLA-4/CS-1 (Homo sapiens, UniProt P05556+P13612)
T1 construct: inflammatory cells that contain the VLA-4 receptor [Jurkat cells; host or cells: Jurkat (human T lymphoblastic line)
T1 sequence (P13612 34-1032): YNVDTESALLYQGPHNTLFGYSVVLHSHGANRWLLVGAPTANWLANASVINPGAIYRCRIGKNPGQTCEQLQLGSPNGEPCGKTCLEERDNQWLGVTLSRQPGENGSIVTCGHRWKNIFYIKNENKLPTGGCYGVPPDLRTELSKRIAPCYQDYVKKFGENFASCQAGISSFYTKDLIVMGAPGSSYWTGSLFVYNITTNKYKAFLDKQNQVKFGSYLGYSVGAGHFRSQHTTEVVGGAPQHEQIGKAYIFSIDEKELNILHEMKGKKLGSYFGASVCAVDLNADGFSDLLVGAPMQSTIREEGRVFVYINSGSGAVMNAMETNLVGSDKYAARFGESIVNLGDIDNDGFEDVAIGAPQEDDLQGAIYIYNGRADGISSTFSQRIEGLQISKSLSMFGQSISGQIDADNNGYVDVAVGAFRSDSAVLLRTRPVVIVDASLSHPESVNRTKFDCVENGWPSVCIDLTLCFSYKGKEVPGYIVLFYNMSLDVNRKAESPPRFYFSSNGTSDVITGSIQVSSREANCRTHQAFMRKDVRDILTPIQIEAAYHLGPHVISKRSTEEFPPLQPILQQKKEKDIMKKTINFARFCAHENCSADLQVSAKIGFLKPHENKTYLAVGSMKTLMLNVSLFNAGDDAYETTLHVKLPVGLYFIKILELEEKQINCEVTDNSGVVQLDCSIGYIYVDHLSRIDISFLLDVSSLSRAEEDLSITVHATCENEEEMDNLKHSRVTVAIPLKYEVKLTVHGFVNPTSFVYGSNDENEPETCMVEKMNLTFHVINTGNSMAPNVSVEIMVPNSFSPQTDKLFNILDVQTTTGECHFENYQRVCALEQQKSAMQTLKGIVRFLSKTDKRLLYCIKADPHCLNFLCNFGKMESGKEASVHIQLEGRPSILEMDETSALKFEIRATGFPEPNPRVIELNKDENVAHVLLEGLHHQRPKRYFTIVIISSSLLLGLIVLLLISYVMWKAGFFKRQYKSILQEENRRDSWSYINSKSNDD
T1 sequence (P05556 21-798): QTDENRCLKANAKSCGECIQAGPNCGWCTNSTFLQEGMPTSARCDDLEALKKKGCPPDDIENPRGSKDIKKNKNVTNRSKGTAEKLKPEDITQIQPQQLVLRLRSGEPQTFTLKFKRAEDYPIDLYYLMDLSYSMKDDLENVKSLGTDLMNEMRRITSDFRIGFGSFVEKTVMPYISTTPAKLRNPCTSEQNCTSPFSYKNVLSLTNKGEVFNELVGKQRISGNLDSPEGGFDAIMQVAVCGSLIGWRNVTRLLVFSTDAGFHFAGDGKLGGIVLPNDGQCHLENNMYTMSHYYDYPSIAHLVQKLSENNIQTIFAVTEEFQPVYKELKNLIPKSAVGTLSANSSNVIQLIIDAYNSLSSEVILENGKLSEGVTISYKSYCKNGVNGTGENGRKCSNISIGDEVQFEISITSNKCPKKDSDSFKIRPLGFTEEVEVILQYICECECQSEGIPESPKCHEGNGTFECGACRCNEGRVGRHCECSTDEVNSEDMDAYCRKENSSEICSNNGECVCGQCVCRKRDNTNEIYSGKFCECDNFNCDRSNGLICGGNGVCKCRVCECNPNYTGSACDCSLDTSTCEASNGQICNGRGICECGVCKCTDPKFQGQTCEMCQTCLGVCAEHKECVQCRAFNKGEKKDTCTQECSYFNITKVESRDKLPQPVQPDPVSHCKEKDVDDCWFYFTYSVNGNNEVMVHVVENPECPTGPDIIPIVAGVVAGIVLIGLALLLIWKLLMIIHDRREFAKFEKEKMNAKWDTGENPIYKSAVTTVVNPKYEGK
Experiment: In vitro inhibition of binding of 51Cr-labeled Jurkat cells to solid phase-bound CS-1 peptide
Assay type: cell-based
Conditions: for inhibition potency relative to the Standard 10-mer of SEQ ID NO:6: times more potent than standard 10-mer
Protocol: Binding inhibition is measured here as a concentration of peptide that inhibits one-half the binding between a standard number of Jurkat cells and a standard amount of CS-1 peptide bound to the surface of a microtiter plate well. Those concentrations are conveniently expressed as IC50 values, smaller numbers indicating a lower concentration required to inhibit 50 percent binding and therefore greater potency. Further specifics of this assay are provided hereinafter.
Jurkat cells (ATCC TIB 152), a human T lymphoblastic line, labeled with ^51 chromium were used to assay in vitro binding inhibition provided by various peptides discussed herein.
The plates were prepared as follows: The 25-mer CS-1 peptide (SEQ ID NO:5) dissolved at 0.5-1 μg/ml in a buffer of 0.1M NaHCO3 at pH 9.5 that also contained 10 μg/ml of bovine serum albumin (BSA) or a conjugate of the CS-1 peptide linked to ovalbumin (CS-1-OVA) dissolved at 1-2.5 μg/ml in the same buffer was used as the substrate. Each well of the microtiter plates was coated with 50 μl of substrate or buffer alone for controls. The wells were permitted to dry out completely and were then rinsed twice with PBS at pH 7.4. Non-specific binding sites of each well were then blocked using 200 μl per well of RPMI/1 percent BSA for two hours at room temperature. Both solid phase-affixed substrates provided similar results.
Jurkat cells (3-5×10^6 cells) were placed into a 15 ml FALCON™ round-bottom tube with a cap. The tube was centrifuged, and the extra medium was then removed.
Two hundred microliters of a ^51 Cr labeling solution were added to the centrifuged cells and maintained in contact with the cells for 90-120 minutes in a warm room. This procedure typically provides about 50,000-100,000 cpm/well with about 80-100 percent cell viability. Longer contact times provide a greater amount of labeling but lower cell viability.
The labeled cells were washed with (i) complete medium, (ii) 1 mM EDTA/PBS and then (iii) RPM1/1 percent BSA free of serum components. The cells were centrifuged after each washing. The cells were finally resuspended in serum-free RPMI/1 percent BSA at a concentration of 1×10^6 viable cells/ml, which provides a concentration that is diluted by one-half in the assay.
Cyclic inhibitor peptides were prepared as stock solutions at 20 mg/ml in DMSO in 1.5 ml cryogenic screwcap vials, and were stored at -70° C. Using FLOW™ round-bottom or V-bottom microtiter plates, the inhibitor peptides were prepared at twice the assay concentration in RPMI/1 percent BSA at 60 μl/well.
Four initial dilutions were typically used.
The ^51 Cr-labeled cells (1×10^6 cells at 60 μl/well) were then admixed with the diluted cyclic peptide solutions. The admixtures were maintained at room temperature (about 22° C.) for 30 minutes.
One hundred microliters of each inhibitor peptide/cell admixture were transferred to the substrate-coated wells. This was done in triplicate for each dilution. The resulting plates were incubated for 30 minutes at 37° C. and then washed gently three times with RPMI/1 percent BSA at 200 μl/well. Binding was observed microscopically, particularly after the second wash.
The bound cells were then lysed by the addition of a 0.5 percent solution of sodium dodecylsulfate in water at 100 μl/well. The resulting solutions were then processed for counting and calculation of IC50 values following usual procedures. Appropriate positive and negative controls were used with each plate so that the results of separate assays could be normalized and compared.
The potency data of Table 1 and Table 2 are so normalized. The absolute IC50 value for the peptide of SEQ ID NO:7 is 0.3 μM.

[1] = Table 1, normalized IC50, standard peptide of SEQ ID NO:6 = 1
[2] = Table 2, normalized, relative to standard peptide of SEQ ID NO:6

Compound: CC(C)C[C@@H]1NC(=O)[C@H](Cc2ccccc2)NC(=O)[C@H](CCC(=O)O)NC(=O)[C@@H](N)CSSC[C@@H](C(N)=O)NC(=O)[C@@H]2CCCN2C(=O)[C@H](Cc2ccccc2)NC(=O)[C@H](CC(=O)O)NC1=O [compound 20] (H-CEFLDFPC-NH2; disulfide 1-8)
Relative Potency [1]: 19

Compound: CC(C)C[C@@H]1NC(=O)[C@H](Cc2ccccc2)NC(=O)[C@H](CCC(=O)O)NC(=O)[C@@H]2CCCN2C(=O)[C@@H](N)CSSC[C@@H](C(N)=O)NC(=O)[C@@H]2CCCN2C(=O)[C@H](Cc2ccccc2)NC(=O)[C@H](CC(=O)O)NC1=O [compound 16] (H-CPEFLDFPC-NH2; disulfide 1-9)
Relative Potency [1]: 31

Compound: ILDVPILDVP-NH2 [compound 26]
Relative Potency [1]: 2

Compound: .phi.AcJDFc-NH2 (PhAc-[Pen]DF[dC]-NH2; disulfide 1-4)
Relative Potency [1]: 4 | Relative Potency [2]: 4.07

Compound: CC(C)C[C@H](N)C(=O)N[C@@H](CC(=O)O)C(=O)N[C@@H](Cc1ccccc1)C(N)=O [LDF--NH2] (H-Leu-Asp-Phe-NH2)
Relative Potency [1]: 0

Compound: CC(C)C[C@@H]1NC(=O)[C@H](Cc2ccccc2)NC(=O)[C@@H](N)CSSC[C@@H](C(N)=O)NC(=O)[C@H]([C@@H](C)O)NC(=O)[C@H](CO)NC(=O)[C@@H]2CCCN2C(=O)[C@H](Cc2ccccc2)NC(=O)[C@H](CC(=O)O)NC1=O [SEQ ID NO:15, CFLDFPSTC--NH2] (H-CFLDFPSTC-NH2; disulfide 1-9)
Relative Potency [2]: 81.4

Compound: NC(=O)[C@@H]1CCCN1C(=O)[C@@H]1CSSC[C@H](NC(=O)[C@@H](N)Cc2ccccc2)C(=O)N[C@@H](CC(=O)O)C(=O)N1 [compound 30] (H-FCDCP-NH2; disulfide 2-4)
Relative Potency [1]: < 1

Compound: CC1(C)SSC[C@@H](C(N)=O)NC(=O)[C@H](Cc2ccccc2)NC(=O)[C@H](CC(=O)O)NC(=O)[C@H]1NC(=O)Cc1ccccc1 [compound 14] (PhAc-[Pen]DFC-NH2; disulfide 1-4)
Relative Potency [1]: 94

Compound: CC(=O)N[C@@H](Cc1ccccc1)C(=O)N[C@H]1CSSC[C@@H](C(N)=O)NC(=O)[C@H](Cc2ccccc2)NC(=O)[C@H](CC(=O)O)NC1=O [compound 17] (Ac-FCDFC-NH2; disulfide 2-5)
Relative Potency [1]: 53

Compound: CC(C)C[C@@H]1NC(=O)[C@H](CCC(=O)O)NC(=O)[C@@H]2CCCN2C(=O)[C@@H](N)CSSC[C@@H](C(N)=O)NC(=O)[C@H](CO)NC(=O)[C@@H]2CCCN2C(=O)[C@H](Cc2ccccc2)NC(=O)[C@H](CC(=O)O)NC1=O [compound 33] (H-CPELDFPSC-NH2; disulfide 1-9)
Relative Potency [1]: 31

Compound: CC(C)C[C@@H]1NC(=O)[C@H](Cc2ccccc2)NC(=O)[C@@H](N)CSSC[C@@H](C(N)=O)NC(=O)[C@H]([C@@H](C)O)NC(=O)[C@H](CO)NC(=O)[C@@H]2CCCN2C(=O)[C@H](Cc2ccccc2)NC(=O)[C@H](CC(=O)O)NC1=O [compound 15] (H-CFLDFPSTC-NH2; disulfide 1-9)
Relative Potency [1]: 81

Compound: NC(=O)[C@@H]1CSSC[C@H](NC(=O)Cc2ccccc2)C(=O)N[C@@H](CC(=O)O)C(=O)N[C@@H](Cc2ccccc2)C(=O)N1 [compound 7] (PhAc-CDFC-NH2; disulfide 1-4)
Relative Potency [1]: 954

Results, then the compound that gave them:

Relative Potency [2]: 0
Compound: CC(C)C[C@@H]1NC(=O)[C@H](Cc2ccccc2)NC(=O)[C@@H](N)CSSC[C@@H](C(=O)N2CCC[C@H]2C(N)=O)NC(=O)[C@H](CC(=O)O)NC1=O (H-CFLDCP-NH2; disulfide 1-5)

Relative Potency [1]: 9
Compound: CC(C)C[C@@H]1NC(=O)[C@H](Cc2ccccc2)NC(=O)[C@H](CCC(=O)O)NC(=O)[C@@H](N)CSSC[C@@H](C(N)=O)NC(=O)[C@H]([C@@H](C)O)NC(=O)[C@H](CO)NC(=O)[C@@H]2CCCN2C(=O)[C@H](Cc2ccccc2)NC(=O)[C@H](CC(=O)O)NC1=O [compound 22] (H-CEFLDFPSTC-NH2; disulfide 1-10)

Relative Potency [1]: 19
Compound: CC(C)C[C@@H]1NC(=O)[C@H](Cc2ccccc2)NC(=O)[C@@H](N)CSSC[C@@H](C(N)=O)NC(=O)[C@H](C(C)C)NC(=O)[C@H]([C@@H](C)O)NC(=O)[C@H](CO)NC(=O)[C@@H]2CCCN2C(=O)[C@H](Cc2ccccc2)NC(=O)[C@H](CC(=O)O)NC1=O [compound 21] (H-CFLDFPSTVC-NH2; disulfide 1-10)

Relative Potency [1]: < 1 | inhibition potency relative to the Standard 10-mer of SEQ ID NO:6: about 1
Compound: CC(=O)N[C@@H](CC(C)C)C(=O)N[C@@H](CC(=O)O)C(=O)N[C@H](C(N)=O)C(C)C [AcLDV--NH2, reference compound] (Ac-Leu-Asp-Val-NH2)

Relative Potency [1]: 16 | Relative Potency [2]: 16.1
Compound: O=C(O)C[C@@H]1NC(=O)[C@@H](NC(=O)Cc2ccccc2)CSCCNC(=O)[C@H](Cc2ccccc2)NC1=O [.phi.AcCDF--NHCH2 CH2 --]

Relative Potency [1]: < 1
Compound: SFDFS-NH2 [compound 31]

Relative Potency [1]: 1
Compound: CC(C)C[C@@H]1NC(=O)[C@@H](N)CSSC[C@@H](C(N)=O)NC(=O)[C@H](Cc2ccccc2)NC(=O)[C@H](CC(=O)O)NC1=O [compound 28] (H-CLDFC-NH2; disulfide 1-5)

Relative Potency [1]: 0 | inhibition potency relative to the Standard 10-mer of SEQ ID NO:6: zero
Compound: CC(C)C[C@H](N)C(=O)N[C@@H](CC(=O)O)C(=O)N[C@H](C(N)=O)C(C)C [LDV--NH2, reference compound] (H-Leu-Asp-Val-NH2)

Relative Potency [2]: .91
Compound: CC(=O)N[C@H]1CSSC[C@@H](C(N)=O)NC(=O)[C@H](Cc2ccccc2)NC(=O)[C@H](CC(=O)O)NC(=O)[C@H](CC(C)C)NC1=O (Ac-CLDFC-NH2; disulfide 1-5)

Relative Potency [1]: < 1
Compound: CC(=O)N[C@@H](CC(C)C)C(=O)N[C@@H](CC(=O)O)C(=O)N[C@@H](Cc1ccccc1)C(N)=O [AcLDF--NH2] (Ac-Leu-Asp-Phe-NH2)

Relative Potency [1]: 9
Compound: CC(C)C[C@@H]1NC(=O)[C@H](Cc2ccccc2)NC(=O)[C@H](CCC(=O)O)NC(=O)[C@@H]2CCCN2C(=O)CNC(=O)[C@@H](N)CSSC[C@@H](C(N)=O)NC(=O)[C@H](Cc2ccccc2)NC(=O)[C@H](CC(=O)O)NC1=O [compound 23] (H-CGPEFLDFC-NH2; disulfide 1-9)

Relative Potency [1]: 1
Compound: CC(=O)N[C@@H](Cc1ccccc1)C(=O)N[C@H]1CSSC[C@@H](C(=O)N2CCC[C@H]2C(N)=O)NC(=O)[C@H](CC(=O)O)NC1=O [compound 29] (Ac-FCDCP-NH2; disulfide 2-4)

CS-1 binding inhibition potencies relative to each other (XLDFp = 1): ~1 | inhibition potency relative to the Standard 10-mer of SEQ ID NO:6: ~313
Compound: CC(C)C[C@H](NC(=O)Cc1ccccc1)C(=O)N[C@@H](CC(=O)O)C(=O)N[C@@H](Cc1ccccc1)C(=O)N1CCC[C@@H]1C(N)=O [XLDFp, .phi.Ac-LeuAspPhe-D-Pro-NH2, reference compound] (PhAc-LDF[dP]-NH2)

Relative Potency [1]: 3
Compound: NC(=O)[C@@H]1CSSC[C@H](NC(=O)[C@@H](N)Cc2ccccc2)C(=O)N[C@@H](CC(=O)O)C(=O)N[C@@H](Cc2ccccc2)C(=O)N1 [compound 25] (H-FCDFC-NH2; disulfide 2-5)

Relative Potency [1]: 6
Compound: CC(C)C[C@@H]1NC(=O)[C@H](Cc2ccccc2)NC(=O)[C@H](CCC(=O)O)NC(=O)[C@@H](N)CSSC[C@@H](C(N)=O)NC(=O)[C@H](CO)NC(=O)[C@@H]2CCCN2C(=O)[C@H](Cc2ccccc2)NC(=O)[C@H](CC(=O)O)NC1=O [compound 24] (H-CEFLDFPSC-NH2; disulfide 1-9)

Relative Potency [2]: 0
Compound: CC(=O)N[C@H]1CSSC[C@@H](C(=O)N2CCC[C@@H]2C(N)=O)NC(=O)[C@H](CC(=O)O)NC(=O)[C@H](CC(C)C)NC1=O (Ac-CLDC[dP]-NH2; disulfide 1-4)

Relative Potency [1]: 41
Compound: CC(=O)N[C@@H](Cc1ccccc1)C(=O)N[C@@H](CS)C(=O)N[C@@H](CC(=O)O)C(=O)N[C@@H](Cc1ccccc1)C(=O)N[C@@H](CS)C(N)=O [compound 18] (Ac-FCDFC-NH2)
